Experiments:
[1] = test system: Phakopsora pachyrhizi (F129L); assay: Protective control of soybean rust on soybeans (PHAKPA P2); assay type: in vivo; settings: for % PHAKPA (F129L) Disease level P2 at 4 ppm: protective P2, 4 ppm; for % PHAKPA (F129L) Disease level P2 at 4 ppm / % PHAKPA (F129L) Disease level P2 at 16 ppm: soybean rust F129L; for % PHAKPA (F129L) Disease level P2 at 16 ppm: protective P2, 16 ppm
[2] = test system: Phakopsora pachyrhizi (F129L); assay: Protective control of soybean rust on soybeans (PHAKPA P6); assay type: in vivo; settings: for % PHAKPA (F129L) Disease level P6 at 4 ppm: protective P6, 4 ppm; for % PHAKPA (F129L) Disease level P6 at 4 ppm / % PHAKPA (F129L) Disease level P6 at 16 ppm: soybean rust F129L; for % PHAKPA (F129L) Disease level P6 at 16 ppm: protective P6, 16 ppm

Structure (SMILES): CO/N=C(/C(=O)OC)c1cccc(C)c1CO/N=C(\C)c1ccccc1OC [compound 123]
- % PHAKPA (F129L) Disease level P2 at 4 ppm [1]: 100%
- % PHAKPA (F129L) Disease level P2 at 16 ppm [1]: 82%
- % PHAKPA (F129L) Disease level P6 at 4 ppm [2]: 90%
- % PHAKPA (F129L) Disease level P6 at 16 ppm [2]: 78%

Structure (SMILES): CO/N=C(/C(=O)OC)c1cccc(C)c1CO/N=C(\C)c1cccc(C(F)F)c1 [compound 19]
- % PHAKPA (F129L) Disease level P2 at 4 ppm [1]: 87%
- % PHAKPA (F129L) Disease level P2 at 16 ppm [1]: 0%
- % PHAKPA (F129L) Disease level P6 at 4 ppm [2]: 87%
- % PHAKPA (F129L) Disease level P6 at 16 ppm [2]: 1%

Structure (SMILES): CNC(=O)/C(=N/OC)c1cccc(C)c1CO/N=C(\C)c1cccc(OC/C(C)=N/OC)c1 [compound 226]
- % PHAKPA (F129L) Disease level P2 at 4 ppm [1]: 28%
- % PHAKPA (F129L) Disease level P2 at 16 ppm [1]: 3%
- % PHAKPA (F129L) Disease level P6 at 4 ppm [2]: 57%
- % PHAKPA (F129L) Disease level P6 at 16 ppm [2]: 7%

Structure (SMILES): CNC(=O)/C(=N/OC)c1cccc(C)c1CO/N=C(\C)c1ccc(Cl)c(F)c1OC(F)(F)F [compound 449]
- % PHAKPA (F129L) Disease level P2 at 4 ppm [1]: 33%
- % PHAKPA (F129L) Disease level P2 at 16 ppm [1]: 10%
- % PHAKPA (F129L) Disease level P6 at 4 ppm [2]: 57%
- % PHAKPA (F129L) Disease level P6 at 16 ppm [2]: 9%

Structure (SMILES): CNC(=O)/C(=N/OC)c1cccc(C)c1CO/N=C(\C)c1ccc(Br)cc1C(F)(F)F [compound 258]
- % PHAKPA (F129L) Disease level P2 at 4 ppm [1]: 32%
- % PHAKPA (F129L) Disease level P2 at 16 ppm [1]: 7%
- % PHAKPA (F129L) Disease level P6 at 4 ppm [2]: 73%
- % PHAKPA (F129L) Disease level P6 at 16 ppm [2]: 8%

Structure (SMILES): CNC(=O)/C(=N/OC)c1cccc(C)c1CO/N=C(\C)c1ccc(Cl)c(Cl)c1C(F)(F)F [compound 431]
- % PHAKPA (F129L) Disease level P2 at 4 ppm [1]: 32%
- % PHAKPA (F129L) Disease level P2 at 16 ppm [1]: 7%
- % PHAKPA (F129L) Disease level P6 at 4 ppm [2]: 40%
- % PHAKPA (F129L) Disease level P6 at 16 ppm [2]: 12%

Structure (SMILES): C=Cc1cccc(/C(=N\OC)C(=O)NC)c1CO/N=C(\C)c1ccccc1 [compound 400]
- % PHAKPA (F129L) Disease level P2 at 4 ppm [1]: 2%
- % PHAKPA (F129L) Disease level P2 at 16 ppm [1]: 0%
- % PHAKPA (F129L) Disease level P6 at 4 ppm [2]: 8%
- % PHAKPA (F129L) Disease level P6 at 16 ppm [2]: 0%

Structure (SMILES): CNC(=O)/C(=N/OC)c1cccc(C)c1CO/N=C(\C)c1c(Cl)cc(Cl)cc1OC(F)(F)F [compound 428]
- % PHAKPA (F129L) Disease level P2 at 4 ppm [1]: 70%
- % PHAKPA (F129L) Disease level P2 at 16 ppm [1]: 11%
- % PHAKPA (F129L) Disease level P6 at 4 ppm [2]: 83%
- % PHAKPA (F129L) Disease level P6 at 16 ppm [2]: 20%

Structure (SMILES): CNC(=O)/C(=N/OC)c1cccc(C)c1CO/N=C(\C)c1ccc(OC(F)(F)F)cc1 [compound 136]
- % PHAKPA (F129L) Disease level P2 at 4 ppm [1]: 1%
- % PHAKPA (F129L) Disease level P2 at 16 ppm [1]: 0%
- % PHAKPA (F129L) Disease level P6 at 4 ppm [2]: 3%
- % PHAKPA (F129L) Disease level P6 at 16 ppm [2]: 2%

Structure (SMILES): C#Cc1cc(/C(C)=N/OCc2c(C)cccc2/C(=N\OC)C(=O)NC)cc(C(F)(F)F)c1 [compound 148]
- % PHAKPA (F129L) Disease level P2 at 4 ppm [1]: 9%
- % PHAKPA (F129L) Disease level P2 at 16 ppm [1]: 2%
- % PHAKPA (F129L) Disease level P6 at 4 ppm [2]: 13%
- % PHAKPA (F129L) Disease level P6 at 16 ppm [2]: 7%

Structure (SMILES): CO/N=C(/C(=O)OC)c1cccc(C)c1CO/N=C(\C)c1cccc(CC2COC2)c1 [compound 160]
- % PHAKPA (F129L) Disease level P2 at 4 ppm [1]: 100%
- % PHAKPA (F129L) Disease level P2 at 16 ppm [1]: 97%
- % PHAKPA (F129L) Disease level P6 at 4 ppm [2]: 87%
- % PHAKPA (F129L) Disease level P6 at 16 ppm [2]: 90%

Structure (SMILES): CNC(=O)/C(=N/OC)c1cccc(C)c1CO/N=C(\C)c1ccccc1C1CC1(F)F (centres unmarked) [compound 288]
- % PHAKPA (F129L) Disease level P2 at 4 ppm [1]: 87%
- % PHAKPA (F129L) Disease level P2 at 16 ppm [1]: 30%
- % PHAKPA (F129L) Disease level P6 at 4 ppm [2]: 97%
- % PHAKPA (F129L) Disease level P6 at 16 ppm [2]: 20%

Structure (SMILES): CNC(=O)/C(=N/OC)c1cccc(C)c1CO/N=C(\C)c1ccccc1C [compound 127]
- % PHAKPA (F129L) Disease level P2 at 4 ppm [1]: 90%
- % PHAKPA (F129L) Disease level P2 at 16 ppm [1]: 44%
- % PHAKPA (F129L) Disease level P6 at 4 ppm [2]: 93%
- % PHAKPA (F129L) Disease level P6 at 16 ppm [2]: 62%

Structure (SMILES): CCc1ccc(/C(C)=N/OCc2c(C)cccc2/C(=N\OC)C(=O)NC)cc1 [Ex. 165]
- PHAKPA (F129L) Disease level (%) P2 at 4 ppm ([1]; P2 protective, 4 ppm, % diseased leaf area): 0%
- % PHAKPA (F129L) Disease level P2 at 4 ppm [1]: 0%
- % PHAKPA (F129L) Disease level P2 at 16 ppm [1]: 0%
- PHAKPA (F129L) Disease level (%) P6 at 4 ppm ([2]; P6 protective, 4 ppm, % diseased leaf area): 27%
- % PHAKPA (F129L) Disease level P6 at 4 ppm [2]: 17%
- % PHAKPA (F129L) Disease level P6 at 16 ppm [2]: 0%

Structure (SMILES): CNC(=O)/C(=N/OC)c1cccc(C)c1CO/N=C(\C)c1ccc(Cl)c(C)c1 [compound 107]
- % PHAKPA (F129L) Disease level P2 at 4 ppm [1]: 1%
- % PHAKPA (F129L) Disease level P2 at 16 ppm [1]: 0%
- % PHAKPA (F129L) Disease level P6 at 4 ppm [2]: 15%
- % PHAKPA (F129L) Disease level P6 at 16 ppm [2]: 1%

Structure (SMILES): CNC(=O)/C(=N/OC)c1cccc(C)c1CO/N=C(\C)c1c(Cl)ccc(F)c1OC(F)(F)F [compound 440]
- % PHAKPA (F129L) Disease level P2 at 4 ppm [1]: 93%
- % PHAKPA (F129L) Disease level P2 at 16 ppm [1]: 23%
- % PHAKPA (F129L) Disease level P6 at 4 ppm [2]: 73%
- % PHAKPA (F129L) Disease level P6 at 16 ppm [2]: 23%

Structure (SMILES): CNC(=O)/C(=N/OC)c1cccc(C)c1CO/N=C(\C)c1ccc(F)cc1Cl [compound 262]
- % PHAKPA (F129L) Disease level P2 at 4 ppm [1]: 63%
- % PHAKPA (F129L) Disease level P2 at 16 ppm [1]: 1%
- % PHAKPA (F129L) Disease level P6 at 4 ppm [2]: 47%
- % PHAKPA (F129L) Disease level P6 at 16 ppm [2]: 4%

Structure (SMILES): CNC(=O)/C(=N/OC)c1cccc(C)c1CO/N=C(\C)c1ccc(/C(C)=N/OC)cc1 [compound 182]
- % PHAKPA (F129L) Disease level P2 at 4 ppm [1]: 6%
- % PHAKPA (F129L) Disease level P2 at 16 ppm [1]: 0%
- % PHAKPA (F129L) Disease level P6 at 4 ppm [2]: 13%
- % PHAKPA (F129L) Disease level P6 at 16 ppm [2]: 0%
